According to BindingDB's records for doi:10.1021/jm050175p (Wyeth Research, 2005):

Biological target: Tyrosine-protein kinase ABL1 (Homo sapiens, UniProt P00519)
Test: Homogeneous Time-resolved Fluorescence (HTRF) Assay

Tyrosine-protein kinase ABL1, sequence (P00519 whole entry): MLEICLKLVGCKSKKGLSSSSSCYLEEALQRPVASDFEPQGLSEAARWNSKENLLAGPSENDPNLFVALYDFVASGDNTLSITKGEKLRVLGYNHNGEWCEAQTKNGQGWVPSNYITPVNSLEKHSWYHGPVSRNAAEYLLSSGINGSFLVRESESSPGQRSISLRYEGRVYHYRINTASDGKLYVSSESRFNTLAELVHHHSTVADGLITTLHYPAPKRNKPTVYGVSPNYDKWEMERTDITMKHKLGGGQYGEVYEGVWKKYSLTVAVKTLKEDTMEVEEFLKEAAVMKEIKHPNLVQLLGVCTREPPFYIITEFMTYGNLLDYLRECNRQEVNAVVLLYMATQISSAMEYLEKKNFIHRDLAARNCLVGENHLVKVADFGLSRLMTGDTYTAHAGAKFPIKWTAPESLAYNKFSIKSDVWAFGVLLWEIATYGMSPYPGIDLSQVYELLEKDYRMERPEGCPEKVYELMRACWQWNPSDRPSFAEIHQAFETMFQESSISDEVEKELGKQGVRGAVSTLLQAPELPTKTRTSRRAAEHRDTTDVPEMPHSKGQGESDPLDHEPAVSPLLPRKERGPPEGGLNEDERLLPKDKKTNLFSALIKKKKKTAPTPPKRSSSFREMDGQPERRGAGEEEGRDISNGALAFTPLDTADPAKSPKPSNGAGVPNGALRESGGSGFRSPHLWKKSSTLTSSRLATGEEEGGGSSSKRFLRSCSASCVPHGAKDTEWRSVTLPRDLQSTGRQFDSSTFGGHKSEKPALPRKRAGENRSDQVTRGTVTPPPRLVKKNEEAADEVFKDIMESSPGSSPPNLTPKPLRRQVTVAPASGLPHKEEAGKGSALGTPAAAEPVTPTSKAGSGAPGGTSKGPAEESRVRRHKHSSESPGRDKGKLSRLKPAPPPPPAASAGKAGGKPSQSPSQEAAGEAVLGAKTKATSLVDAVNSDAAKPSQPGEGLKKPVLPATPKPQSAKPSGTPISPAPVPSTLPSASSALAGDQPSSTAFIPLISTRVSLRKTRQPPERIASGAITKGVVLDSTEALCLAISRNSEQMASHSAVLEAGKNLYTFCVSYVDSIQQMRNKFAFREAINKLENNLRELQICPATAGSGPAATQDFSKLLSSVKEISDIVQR

Structure (SMILES)	IC50
CCOc1cc(Nc2c(C#N)cnc3cc(OCC4CCN(C)CC4)c(OC)cc23)c(Cl)cc1Cl [4-[(2,4-Dichloro-5-ethoxyphenyl)amino]-6-methoxy-7-[(1-methylpiperidin-4-yl)methoxy]quinoline-3-carbonitrile]	1500 nM
COc1cc(Nc2c(C#N)cnc3cc(OCC4CCCCN4C)c(OC)cc23)c(Cl)cc1Cl (centres undefined) [4-[(2,4-dichloro-5-methoxyphenyl)amino]-6-methoxy-7-[(1-methylpiperidin-2-yl)methoxy]quinoline-3-carbonitrile]	56 nM
COc1cc(Nc2c(C#N)cnc3cc(OCC4CCCN(C)C4)c(OC)cc23)c(Cl)cc1Cl (centres undefined) [4-[(2,4-dichloro-5-methoxyphenyl)amino]-6-methoxy-7-[(1-methylpiperidin-3-yl)methoxy]quinoline-3-carbonitrile]	4.6 nM
COc1cc(Nc2c(C#N)cnc3cc(OC4CCN(C)CC4)c(OC)cc23)c(Cl)cc1Cl [4-[(2,4-dichloro-5-methoxyphenyl)amino]-6-methoxy-7-[(1-methylpiperidin-4-yl)oxy]quinoline-3-carbonitrile]	89 nM
